Reference: patent publication US11077100B2, “Tetrahydroquinoline derivatives as P2X7 receptor antagonists” (RaQualia Pharma Inc., priority 2017, dated 2021)

Tests used:
human P2X7 = human P2X7 (Homo sapiens (Human), UniProt Q99572); experiment: Human P2X7 functional assay (Ca2+ influx, Fluo-4, FDSS); format: cell-based; conditions: antagonistic activity with respect to the human P2X7 receptor; BzATP final concentration 80 microM
In short: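 HEK293 cells stably expressing C-terminally FLAG-tagged human P2X7, loaded with Fluo-4. Compounds were preincubated for 10 min at room temperature, then 80 μM BzATP (final) was added and Ca2+ fluorescence read at 540 nm (480 nm excitation) by FDSS. IC50 values come from 7-point curves, duplicate wells.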

rat P2X7 = rat P2X7 (Rattus norvegicus (Rat), UniProt Q64663); experiment: Rat P2X7 functional assay (Ca2+ influx, Fluo-4, FDSS); format: cell-based; conditions: HEK293 cells stably expressing rat P2X7; BzATP final 10 microM; 7-point dose-response; read-out: Antagonistic activities with respect to the rat P2X7 receptor (IC50)
Sequence of rat P2X7 (Q64663 whole entry): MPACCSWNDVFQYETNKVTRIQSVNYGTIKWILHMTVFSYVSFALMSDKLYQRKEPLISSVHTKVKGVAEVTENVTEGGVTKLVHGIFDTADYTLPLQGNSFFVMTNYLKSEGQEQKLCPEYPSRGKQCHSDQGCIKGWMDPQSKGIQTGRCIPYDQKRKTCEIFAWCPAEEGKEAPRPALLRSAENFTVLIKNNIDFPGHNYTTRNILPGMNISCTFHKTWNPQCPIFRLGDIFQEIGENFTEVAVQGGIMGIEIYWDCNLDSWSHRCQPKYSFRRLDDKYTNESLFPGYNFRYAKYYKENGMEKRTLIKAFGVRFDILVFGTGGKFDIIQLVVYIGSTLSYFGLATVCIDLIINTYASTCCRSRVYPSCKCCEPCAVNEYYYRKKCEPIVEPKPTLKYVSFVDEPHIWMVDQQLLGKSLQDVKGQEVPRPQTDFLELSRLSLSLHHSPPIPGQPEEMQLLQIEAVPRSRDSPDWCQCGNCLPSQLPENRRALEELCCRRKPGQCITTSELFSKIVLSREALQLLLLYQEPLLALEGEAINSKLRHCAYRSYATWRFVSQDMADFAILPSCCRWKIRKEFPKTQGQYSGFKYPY
In short: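 HEK293 cells stably expressing rat P2X7 (5,000/well, plated 24 h before) loaded with Fluo-4; compounds preincubated 10 min at room temperature, then Ca2+ rise after 10 microM BzATP (final) read on FDSS (480/540 nm). IC50 from 7-point curves, duplicate wells.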

Sequence of human P2X7 (Q99572 whole entry): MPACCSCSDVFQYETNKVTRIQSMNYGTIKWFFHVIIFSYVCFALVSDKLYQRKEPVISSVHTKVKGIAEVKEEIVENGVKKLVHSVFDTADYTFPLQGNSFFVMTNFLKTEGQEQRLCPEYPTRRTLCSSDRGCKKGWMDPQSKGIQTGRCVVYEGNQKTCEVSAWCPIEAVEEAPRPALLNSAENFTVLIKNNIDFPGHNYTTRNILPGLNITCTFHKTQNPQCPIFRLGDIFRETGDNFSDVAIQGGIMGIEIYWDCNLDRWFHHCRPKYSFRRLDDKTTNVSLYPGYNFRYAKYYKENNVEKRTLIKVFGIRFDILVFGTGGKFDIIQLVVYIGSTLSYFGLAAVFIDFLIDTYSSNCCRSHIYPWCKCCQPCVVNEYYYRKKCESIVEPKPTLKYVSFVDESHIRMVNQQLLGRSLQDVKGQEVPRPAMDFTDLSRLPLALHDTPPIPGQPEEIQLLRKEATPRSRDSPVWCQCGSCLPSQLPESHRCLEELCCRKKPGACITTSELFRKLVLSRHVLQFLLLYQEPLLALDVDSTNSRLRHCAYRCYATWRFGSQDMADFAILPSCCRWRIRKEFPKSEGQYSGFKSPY

| Compound | IC50 (human P2X7) [µM] | IC50 (rat P2X7) [µM] |
| --- | --- | --- |
| O=C(NCc1ccc(Cl)cc1F)[C@]1(F)CC[C@](O)(CO)c2ncccc21 [Example 315, (5S,8R)-N-(4-chloro-2-fluorobenzyl)-5-fluoro-8-hydroxy-8-(hydroxymethyl)-5,6,7,8-tetrahydroquinoline-5-carboxamide] | 1 to 3 | < 1 |
| O=C(NCc1c(Cl)cc(F)cc1CO)[C@]1(F)CC[C@@](O)(CO)c2ncccc21 [Example 317, (5S,8S)-N-(2-chloro-4-fluoro-6-(hydroxymethyl)benzyl)-5-fluoro-8-hydroxy-8-(hydroxymethyl)-5,6,7,8-tetrahydroquinoline-5-carboxamide] | < 0.05 | < 1 |
| O=C(NCc1ccc(Cl)c(F)c1Cl)[C@]1(F)CC[C@@](O)(CO)c2ncccc21 [Example 319, (5S,8S)-N-(2,4-dichloro-3-fluorobenzyl)-5-fluoro-8-hydroxy-8-(hydroxymethyl)-5,6,7,8-tetrahydroquinoline-5-carboxamide] | < 0.05 | < 1 |
| O=C(NCc1c(F)cc(F)cc1Cl)[C@]1(F)CC[C@@](O)(CO)c2ncccc21 [Example 321, (5S,8S)-N-(2-chloro-4,6-difluorobenzyl)-5-fluoro-8-hydroxy-8-(hydroxymethyl)-5,6,7,8-tetrahydroquinoline-5-carboxamide] | < 0.05 | < 1 |
| O=C(NCc1ccc(F)c(Cl)c1F)[C@]1(F)CC[C@@](O)(CO)c2ncccc21 [Example 323, (5S,8S)-N-(3-chloro-2,4-difluorobenzyl)-5-fluoro-8-hydroxy-8-(hydroxymethyl)-5,6,7,8-tetrahydroquinoline-5-carboxamide] | 0.101 to 0.3 | < 1 |
| C[C@@H](NC(=O)[C@]1(F)CC[C@@](O)(CO)c2ncccc21)c1ccc(Cl)cc1Cl [Example 326, (5S,8S)-N-((R)-1-(2,4-dichlorophenyl)ethyl)-5-fluoro-8-hydroxy-8-(hydroxymethyl)-5,6,7,8-tetrahydroquinoline-5-carboxamide] | < 0.05 | < 1 |
| C[C@@H](NC(=O)[C@]1(F)CC[C@@](O)(CO)c2ncccc21)c1ccc(F)cc1Cl [Example 327, (5S,8S)-N-((R)-1-(2-chloro-4-fluorophenyl)ethyl)-5-fluoro-8-hydroxy-8-(hydroxymethyl)-5,6,7,8-tetrahydroquinoline-5-carboxamide] | < 0.05 | < 1 |
| C[C@@H](NC(=O)[C@]1(F)CC[C@](O)(CO)c2ncccc21)c1ccc(F)cc1Cl [Example 328, (5S,8R)-N-((R)-1-(2-chloro-4-fluorophenyl)ethyl)-5-fluoro-8-hydroxy-8-(hydroxymethyl)-5,6,7,8-tetrahydroquinoline-5-carboxamide] | 0.101 to 0.3 | < 1 |
| O=C(NCc1ncc(Cl)cc1Cl)[C@]1(F)CC[C@@](O)(CO)c2ncccc21 [Example 329, (5S,8S)-N-((3,5-dichloropyridin-2-yl)methyl)-5-fluoro-8-hydroxy-8-(hydroxymethyl)-5,8,7,8-tetrahydroquinoline-5-carboxamide] | 0.05 to 0.1 | < 1 |
| CO[C@@H]1CC[C@@](F)(C(=O)NCc2c(Cl)cc(Cl)cc2CO)c2cccnc21 [Example 334, (5S,8R)-N-(2,4-dichloro-6-(hydroxymethyl)benzyl)-5-fluoro-8-methoxy-5,6,7,8-tetrahydroquinoline-5-carboxamide] | < 0.05 | < 1 |
| CO[C@H]1CC[C@@](F)(C(=O)NCc2ccc(C(F)(F)F)cc2Cl)c2cccnc21 [Example 338, (5S,8S)-N-(2-chloro-4-(trifluoromethyl)benzyl)-5-fluoro-8-methoxy-5,6,7,8-tetrahydroquinoline-5-carboxamide] | < 0.05 | < 1 |
| CO[C@H]1CC[C@@](F)(C(=O)NCc2ccc(F)c(F)c2F)c2cccnc21 [Example 339, (5S,8S)-5-fluoro-8-methoxy-N-(2,3,4-trifluorobenzyl)-5,6,7,8-tetrahydroquinoline-5-carboxamide] | < 0.05 | < 1 |
| CO[C@H]1CC[C@@](F)(C(=O)NCc2c(F)cc(F)cc2F)c2cccnc21 [Example 341, (5S,8S)-5-fluoro-8-methoxy-N-(2,4,6-trifluorobenzyl)-5,6,7,8-tetrahydroquinoline-5-carboxamide] | 0.05 to 0.1 | < 1 |

Now from value to molecule:

| IC50 (human P2X7) [µM] | IC50 (rat P2X7) [µM] | Compound |
| --- | --- | --- |
| 0.101 to 0.3 | < 1 | O=C(NCc1ccc(Cl)cc1F)[C@]1(F)CC[C@@](O)(CO)c2ncccc21 [Example 314, (5S,8S)-N-(4-chloro-2-fluorobenzyl)-5-fluoro-8-hydroxy-8-(hydroxymethyl)-5,6,7,8-tetrahydroquinoline-5-carboxamide] |
| < 0.05 | < 1 | O=C(NCc1c(Cl)cc(Cl)cc1CO)[C@]1(F)CC[C@@](O)(CO)c2ncccc21 [Example 316, (5S,8S)-N-(2,4-dichloro-6-(hydroxymethyl)benzyl)-5-fluoro-8-hydroxy-8-(hydroxymethyl)-5,6,7,8-tetrahydroquinoline-5-carboxamide] |
| 0.301 to 1 | < 1 | O=C(NCc1ccc(F)cc1F)[C@]1(F)CC[C@@](O)(CO)c2ncccc21 [Example 318, (5S,8S)-N-(2,4-difluorobenzyl)-5-fluoro-8-hydroxy-8-(hydroxymethyl)-5,6,7,8-tetrahydroquinoline-5-carboxamide] |
| < 0.05 | < 1 | O=C(NCc1ccc(F)c(Cl)c1Cl)[C@]1(F)CC[C@@](O)(CO)c2ncccc21 [Example 320, (5S,8S)-N-(2,3-dichloro-4-fluorobenzyl)-5-fluoro-8-hydroxy-8-(hydroxymethyl)-5,6,7,8-tetrahydroquinoline-5-carboxamide] |
| 0.101 to 0.3 | < 1 | O=C(NCc1ccc(Cl)c(F)c1F)[C@]1(F)CC[C@@](O)(CO)c2ncccc21 [Example 322, (5S,8S)-N-(4-chloro-2,3-difluorobenzyl)-5-fluoro-8-hydroxy-8-(hydroxymethyl)-5,6,7,8-tetrahydroquinoline-5-carboxamide] |
| 0.05 to 0.1 | < 1 | O=C(NCc1c(F)cc(Cl)cc1F)[C@]1(F)CC[C@@](O)(CO)c2ncccc21 [Example 324, (5S,8S)-N-(4-chloro-2,6-difluorobenzyl)-5-fluoro-8-hydroxy-8-(hydroxymethyl)-5,6,7,8-tetrahydroquinoline-5-carboxamide] |
| 0.101 to 0.3 | < 1 | CO[C@H]1CC[C@](F)(C(=O)NCc2c(Cl)cc(Cl)cc2CO)c2cccnc21 [Example 333, (5R,8S)-N-(2,4-dichloro-6-(hydroxymethyl)benzyl)-5-fluoro-8-methoxy-5,6,7,8-tetrahydroquinoline-5-carboxamide] |
| < 0.05 | < 1 | CO[C@H]1CC[C@@](F)(C(=O)NCc2ccc(F)cc2Cl)c2cccnc21 [Example 337, (5S,8S)-N-(2-chloro-4-fluorobenzyl)-5-fluoro-8-methoxy-5,6,7,8-tetrahydroquinoline-5-carboxamide] |
| < 0.05 | < 1 | CO[C@H]1CC[C@@](F)(C(=O)NCc2ccc(Cl)cc2F)c2cccnc21 [Example 340, (5S,8S)-N-(4-chloro-2-fluorobenzyl)-5-fluoro-8-methoxy-5,6,7,8-tetrahydroquinoline-5-carboxamide] |
